Reference: ChEMBL document CHEMBL3132795, “Synthesis, functional and binding profile of (R)-apomorphine based homobivalent ligands targeting the dopamine D2 receptor” (Medchemcomm, 2013)

Assays:
[1] = molecular target: T1, D(2) dopamine receptor (Homo sapiens, UniProt P14416); assay: Agonist activity at human recombinant dopamine D2L receptor expressed in CHOFlpIn cells assessed as ERK1/2 phosphorylation by alphascreen assay; type: cell-based
[2] = molecular target: T1, D(2) dopamine receptor; assay: Displacement of [3H]spiperone from human recombinant dopamine D2L receptor expressed in CHOFlpIn cells after 3 hrs by liquid scintillation counting; type: cell-based

T1 sequence (P14416 whole entry): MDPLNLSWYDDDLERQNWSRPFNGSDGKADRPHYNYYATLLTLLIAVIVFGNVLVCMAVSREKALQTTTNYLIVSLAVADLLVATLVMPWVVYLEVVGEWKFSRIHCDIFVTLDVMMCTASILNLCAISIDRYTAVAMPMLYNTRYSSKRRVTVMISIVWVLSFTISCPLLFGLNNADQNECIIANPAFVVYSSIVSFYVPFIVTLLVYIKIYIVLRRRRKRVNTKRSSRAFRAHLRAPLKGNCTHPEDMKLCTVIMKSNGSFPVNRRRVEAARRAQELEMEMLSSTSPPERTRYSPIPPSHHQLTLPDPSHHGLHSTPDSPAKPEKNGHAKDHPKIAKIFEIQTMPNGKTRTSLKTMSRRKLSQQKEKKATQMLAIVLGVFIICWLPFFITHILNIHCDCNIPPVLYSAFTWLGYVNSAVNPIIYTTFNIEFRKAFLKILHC

| Structure (SMILES) | EC50 [1] [nM] | IC50 [2] [nM] |
| --- | --- | --- |
| CN1CCc2cccc3c2[C@H]1Cc1ccc(OCCCN)c(O)c1-3 | 10 |  |
| CC(=O)NCCCOc1ccc2c(c1O)-c1cccc3c1[C@@H](C2)N(C)CC3 | 132 |  |
| CN1CCc2cccc3c2[C@H]1Cc1ccc(OCCCNC(=O)CCCCCNC(=O)OC(C)(C)C)c(O)c1-3 | 266 | 6540 |
| CN1CCc2cccc3c2[C@H]1Cc1ccc(OCCCNC(=O)CCC(=O)NCCCOc2ccc4c(c2O)-c2cccc5c2[C@@H](C4)N(C)CC5)c(O)c1-3 | 396 | 4360 |
| CN1CCc2cccc3c2[C@H]1Cc1ccc(OCCCNC(=O)CCCCC(=O)NCCCOc2ccc4c(c2O)-c2cccc5c2[C@@H](C4)N(C)CC5)c(O)c1-3 | 149 | 5320 |
| CN1CCc2cccc3c2[C@H]1Cc1ccc(OCCCNC(=O)CCCCCCC(=O)NCCCOc2ccc4c(c2O)-c2cccc5c2[C@@H](C4)N(C)CC5)c(O)c1-3 | 419 | 3600 |
| CN1CCc2cccc3c2[C@H]1Cc1ccc(OCCCNC(=O)CCCCCCCCC(=O)NCCCOc2ccc4c(c2O)-c2cccc5c2[C@@H](C4)N(C)CC5)c(O)c1-3 | 79 | 1350 |
| CN1CCc2cccc3c2[C@H]1Cc1ccc(OCCCNC(=O)CCCCCCCCCCC(=O)NCCCOc2ccc4c(c2O)-c2cccc5c2[C@@H](C4)N(C)CC5)c(O)c1-3 | 110 | 183 |
| CN1CCc2cccc3c2[C@H]1Cc1ccc(OCCCNC(=O)CCCCCCCCCCCCC(=O)NCCCOc2ccc4c(c2O)-c2cccc5c2[C@@H](C4)N(C)CC5)c(O)c1-3 | 224 |  |
| CN1CCc2cccc3c2[C@H]1Cc1ccc(OCCCNC(=O)CCCCCCCCCCCCCCCCC(=O)NCCCOc2ccc4c(c2O)-c2cccc5c2[C@@H](C4)N(C)CC5)c(O)c1-3 | 385 | 2680 |
| CN1CCc2cccc3c2[C@H]1Cc1ccc(OCCCNC(=O)CCCCCCCCCCCCCCCCCCC(=O)NCCCOc2ccc4c(c2O)-c2cccc5c2[C@@H](C4)N(C)CC5)c(O)c1-3 | 248 | 1550 |
